In a compilation of properties of binary mixtures (doi:10.1016/j.molliq.2016.12.089):

Test: xn = mol fraction of the nth substance listed
Settings: 101 kPa

O + C[N+](C)(CCCS(=O)(=O)O)C1CCCCC1.Cc1ccc(S(=O)(=O)[O-])cc1
x2 = 0
Settings	viscosity [mPa·s]
308.15 K	0.7218
313.15 K	0.6564
318.15 K	0.6071
323.15 K	0.5538
328.15 K	0.5064

C[N+](C)(CCCS(=O)(=O)O)C1CCCCC1.Cc1ccc(S(=O)(=O)[O-])cc1 + O
viscosity [mPa·s]
Settings	303.15 K	308.15 K	313.15 K	318.15 K	323.15 K	328.15 K
x1 = 0.0106	1.404	1.257	–	–	0.9115	–
x1 = 0.0277	2.684	2.406	2.146	1.943	1.789	–
x1 = 0.0603	7.903	–	–	5.145	4.579	–
x1 = 0.1458	78.86	62.58	48.83	–	31.56	25.56
x1 = 1	–	–	32650	17830	10187	6293
